In this experiment the target is Mouse Brain GABA Receptors. The experiment can be described thus: In vitro assay of binding to mouse brain GABA receptors (3H-EBOB displacement, mouse brain membranes). The settings on record: displacement of 5.2 nM 3H-EBOB, about 45 min at about 24° C. How it is done:
Mouse brains were obtained from carbon dioxide-asphyxiated Swiss-Webster mice, washed with phosphate-buffered saline, and used either fresh or after storage at −80° C. for up to 10 months. Unless specified, all preparation steps were performed at 0-4° C. For each preparation, 20 brains were suspended in about 40 mL of 0.32 M sucrose and homogenized for about 2 minutes, using a Tissumizer™ homogenizer equipped with a SDT-100EN probe (available from Tekmar-Dohrmann, Cincinnati, Ohio) running at 50% of its maximum speed. The extract was centrifuged for about 5 min at about 1000×g to pellet intact brain tissue. The supernatant was retained and the pellet washed with an additional 40 mL of 0.32 M sucrose and centrifuged at 1000×g for about 5 minutes. The 1000×g supernatants were combined and centrifuged at about 10,000×g for about 20 min to pellet membranes. The 10,000×g supernatant was discarded and the pellet was resuspended in about 20 mL of water containing 1 mM EDTA. The sample was dialyzed two times for about 3 hours each against about 3 L of water. The sample was then centrifuged at about 25,000×g for about 30 min to pellet the membranes. After centrifugation, the supernatant was discarded and the wet pellet recovered. The protein concentration of the pellet was determined by the Bio-Rad Protein Assay (available from Bio-Rad Laboratories, Hercules, Calif.) using bovine serum albumin as a standard. The membranes were aliquoted and stored at −80° C. for up to 6 months before use.
Mouse brain membranes were prepared as described above from dissected mouse brains. Test compounds were dissolved in dimethylsulfoxide (DMSO) at concentrations ranging from about 2 nM to about 100 mM. About 1 μL of a dissolved test compound was dispensed into a well of a 96-well polystyrene plate. About 100 μL of ice cold assay buffer (10 mM phosphate, 300 mM NaCl, pH 7.5) containing 5.2 nM 4′-Ethynyl-4-n-[2,3-^3H2]propylbicycloorthobenzoate (^3H-EBOB, 38 Ci/mmol, available from NEN Life Science Products, Boston, Mass.) was added to the well, followed by about 100 μL of ice cold assay buffer containing about 0.25-0.5 mg/mL mouse brain membranes. Control wells were prepared the same way except that the mouse brain membranes were omitted from the “negative” wells, and the test compounds were omitted from the “positive” wells. The samples were incubated for about 45 min at about 24° C. and then filtered on a 0.1% (w/v) polyethylenimine-soaked glass fiber Filtermat A (available from EG&G Wallac Inc., Gaithersburg, Md.) followed by four 100 mL rinses of cold assay buffer using a Harvester 96® cell harvester (available from Tomtec, Orange, Conn.). The filtermat was air dried and radioactivity bound to the filtermat was detected with either a 1450 MicroBeta® Trilux scintillation counter (available from EG&G Wallac Inc.) or a Topcount NXT™ scintillation counter (available from Packard Instrument Co., Meriden, Conn.) using standard methods.
Specific binding was considered to be the difference between total ^3H bound to the mouse brain membranes in the absence of any inhibitors and nonspecific ^3H bound to the mouse brain membranes upon the addition of 5 μM unlabeled EBOB. The average radioactivity contained in the “negative” wells was subtracted from each of the assay wells. […] Compounds that displaced ^3H-EBOB specifically bound to the mouse brain membranes were tested at 24-48 different final concentrations, varying from about 1 nM to about 125 μM, in order to determine the concentration at which 50% of the maximum inhibition due to the addition of that compound was observed (IC50). […]

Broadly, the IC50 is the midpoint of a concentration-inhibition curve. Regarding `O=S(=O)(Oc1c2c(nn1-c1c(Cl)cc(C(F)(F)F)cc1Cl)CSC2)c1ccccc1` [Compound 6, 2-[2,6-Dichloro-4-(trifluoromethyl)phenyl]-4,6-dihydrothieno-[3,4-c]pyrazole-3-yl benzenesulfonate], the IC50 was 730 nM.
Under `FC(F)(F)c1cc(Cl)c(-n2cc3c(n2)CC=C3)c(Cl)c1` [Compound 63, 2-[2,6-Dichloro-4-(trifluoromethyl)phenyl]-6-hydrocyclopenta[1,2-c]pyrazole] stands 1000 nM; under `O=S(=O)(C1CCc2nn(-c3c(Cl)cc(C(F)(F)F)cc3Cl)cc21)C(F)(F)F` (stereo not shown) [Compound 67], 25000 nM.
As for `CSC1CCc2nn(-c3c(Cl)cc(C(F)(F)F)cc3Cl)cc21` (stereo not shown) [Compound 68, 2-[2,6-Dichloro-4-(trifluoromethyl)phenyl]-4-methylthio-2,4,5,6-tetrahydrocyclopenta[c]pyrazole], the IC50 was found to be 1000 nM.

For the origin of these results see US6545033B1, “Fused 1-(2,6-dichloro-4-trifluoromethylphenyl)-pyrazoles, the synthesis thereof and the use thereof as pesticides” (3-Dimensional Pharmaceuticals, Inc., priority 1999, dated 2003).
